Source: patent publication US20100022542A1, “COMPOUNDS EXHIBITING THROMBOPOIETIN RECEPTOR AGONISM” (Shionogi & Co., Ltd., priority 2000, published 2010)

Target: T1, human TPO receptor (hTPOR) (Homo sapiens, UniProt P40238)
T1 construct: expressed in transfected cells; host or cells: BaF-B03 (murine IL-3 dependent cell line)
T1 sequence (P40238 26-635): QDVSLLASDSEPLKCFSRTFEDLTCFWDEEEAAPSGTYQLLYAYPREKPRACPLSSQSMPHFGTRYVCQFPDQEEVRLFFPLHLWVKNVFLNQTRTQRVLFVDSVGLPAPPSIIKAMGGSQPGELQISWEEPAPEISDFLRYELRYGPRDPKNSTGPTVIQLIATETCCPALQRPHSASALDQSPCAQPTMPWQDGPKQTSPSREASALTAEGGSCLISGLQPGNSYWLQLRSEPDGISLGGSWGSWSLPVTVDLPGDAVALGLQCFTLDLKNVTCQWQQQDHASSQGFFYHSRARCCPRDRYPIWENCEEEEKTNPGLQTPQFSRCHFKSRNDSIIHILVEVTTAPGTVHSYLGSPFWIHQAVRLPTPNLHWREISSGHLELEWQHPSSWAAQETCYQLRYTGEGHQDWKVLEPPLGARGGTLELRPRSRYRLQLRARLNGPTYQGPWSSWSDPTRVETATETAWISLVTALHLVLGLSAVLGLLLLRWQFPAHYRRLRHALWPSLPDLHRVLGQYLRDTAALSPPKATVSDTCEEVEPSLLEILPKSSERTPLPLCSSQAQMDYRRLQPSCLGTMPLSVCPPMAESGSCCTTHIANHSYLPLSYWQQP
Assay: Proliferation of TPO dependent BaF/hTPOR cells, WST-1, thrombopoietic activity ED50 (Test Example 3)
Assay type: cell-based
Details: 20 h incubation then WST-1 4 h, absorbance at 450 nm
Excerpt: FIG. 2: The chart represents proliferation of the human TPO dependent cells bearing human TPO receptors by the present invention compound, wherein the x-axis is concentration of the present invention compound, and the y-axis is the absorbance as an indicator of cell proliferation. Open circles indicate a response of human TPO, and closed circles indicate a response of the compound (B-1).
The TPO dependent BaF/hTPOR cell line which was established by introducing human TPO receptor (hTPOR) into BaF-B03 cells according to Collins et al (J. Cell. Physiol., 137:293-298 (1988)) was used to test the thrombopoietic activity of the present compound. The DNA sequences and encoded peptide sequences for human hTPOR have been described by Vigon et al (Proc. Natl. Acad. Sci. USA, 89:5640-5644 (1992)). TPO dose not have any ability to support proliferation of interleukin-3 dependent parental cell line BaF-B03. BAF/hTPOR cells were maintained in RPMI medium and WEHI-3B conditioned medium as a source of murine interleukin-3 (IL-3). These cells were washed and resuspended in RPMI medium without a source of murine IL-3 and seeded into each well of 96-well microtiter plates at a density of 5×10^4 cells per well in the absence or presence of various concentration of hTPO or the present compound. After incubation at 37° C. for 20 hours in the 5% CO2 incubator, 10% WST-1 reagent (Takara Biomedicals, Japan) was added to each wells and the cells were further incubated for 4 hours. Effect of the present compound on the growth of BAF/mTPOR cell line which was established by introducing murine TPO receptor (mTPOR) into BAF-B03 cells is shown in FIG. 3. Table 8 exemplifies the ED50 for tested compounds of the present invention, wherein the ED50 is the half concentration of the concentration showing the maximum thrombopoietic activity.

Row | SMILES | EC50
1 | CCOC(=O)/C(C)=C/c1ccc(C(=O)Nc2nc(-c3cccc(OC(F)(F)F)c3)cs2)cc1 [Compound A-19] | 170 nM
2 | O=C(O)/C(Cl)=C/c1ccc(C(=O)Nc2nc(-c3ccc(Br)cc3F)cs2)cc1 [Compound A-69] | 71 nM
3 | O=C(O)C(Br)=Cc1ccc(C(=O)Nc2nc(-c3ccc(Cl)c(Cl)c3)cs2)cc1 [Compound C-4] | 922 nM
4 | O=C(O)/C(Cl)=C/c1ccc(C(=O)Nc2nc(-c3ccc(OC(F)(F)F)cc3)cs2)cc1 [Compound A-76] | 205 nM
5 | C/C(=C\c1ccc(C(=O)Nc2nc(-c3ccc(Cl)c(Cl)c3)cs2)cc1)C(=O)NCc1ccccc1 [Compound B-9] | 82 nM
6 | CCOC(=O)/C(C)=C/c1ccc(C(=O)Nc2nc(-c3ccc(F)cc3)cs2)cc1 [Compound A-23] | 337 nM
7 | O=C(O)/C(Cl)=C/c1ccc(C(=O)Nc2nc(-c3cc(F)c(F)cc3F)cs2)cc1 [Compound A-62] | 101 nM
8 | C/C(=C\c1ccc(C(=O)Nc2nc(-c3ccc(Cl)c(Cl)c3)cs2)cc1)C(=O)NN(C)C [Compound B-29] | 181 nM
9 | Cc1sc(NC(=O)c2ccc(/C=C(\Cl)C(=O)O)cc2)nc1-c1ccc(F)cc1F [Compound J-11] | 311 nM
10 | CC(=Cc1ccc(C(=O)Nc2nc(-c3ccc(F)c(F)c3)cs2)cc1)C(=O)O [Compound A-10] | 365 nM
11 | CNC(=O)/C=C/c1ccc(C(=O)Nc2nc(-c3ccc(Cl)c(Cl)c3)cs2)cc1 [Compound B-3] | 156 nM
12 | O=C(O)/C(Cl)=C/c1ccc(C(=O)Nc2nc(-c3cccc(-c4ccccc4)c3)cs2)cc1 [Compound A-54] | 65 nM
13 | COc1cccc(-c2csc(NC(=O)c3ccc(/C=C(\Cl)C(=O)O)cc3)n2)c1F [Compound A-82] | 199 nM
14 | O=C(O)/C(F)=C/c1ccc(C(=O)Nc2nc(-c3ccc(Cl)c(Cl)c3)cs2)cc1 [Compound A-43] | 71 nM
15 | O=C(O)/C(Cl)=C/c1ccc(C(=O)Nc2nc(-c3cc(F)ccc3F)cs2)cc1 [Compound A-58] | 497 nM
16 | CC(=Cc1ccc(C(=O)Nc2nc(-c3ccc(Cl)c(Cl)c3)cs2)cc1)S(=O)(=O)NC(C)(C)C [Compound F-2] | 144 nM
17 | CC(C)(C)c1ccc(-c2csc(NC(=O)c3ccc(/C=C(\Cl)C(=O)O)cc3)n2)cc1 [Compound A-48] | 473 nM
18 | CCOC(=O)/C(Cl)=C/c1ccc(C(=O)Nc2nc(-c3ccc(C(F)(F)F)cc3)cs2)cc1 [Compound A-39] | 44 nM
19 | CCCCCCc1cccc(-c2csc(NC(=O)c3ccc(/C=C(\Cl)C(=O)O)cc3)n2)c1F [Compound A-93] | 8 nM
20 | O=C(O)/C(Cl)=C/c1ccc(C(=O)Nc2nc(-c3ccc(F)c(-c4ccccc4)c3F)cs2)cc1 [Compound A-89] | 72 nM
